Data reported in ChEMBL document CHEMBL3885861, “Open TG-GATES”.

Species on record: Rattus norvegicus
Experiment: Open TG-GATES - Regimen: Single
Format: toxicity, organism-based, Sprague-Dawley
Design: regimen Single, gender Male, age 6 weeks
Conditions: in vivo, po, 300 mg/kg, route gavage, dose level High; for APTT / Bas / Eos / Fbg / Hb / Ht / Lym / MCH / MCHC / MCV / Mono / Neu / PT / Plat / RBC / Ret / WBC: tissue Blood; for KIDNEY_L / KIDNEY_R / KIDNEY_TOTAL: tissue Kidney; for LIVER: tissue Liver; for A/G / ALP / ALT / AST / BUN / CRE / Ca / Cl / DBIL / GLC / IP / K / LDH / Na / PL / RALB / TBIL / TC / TG / TP / gamma-GTP: tissue Plasma

## Brc1ccccc1 [BROMOBENZENE]
3 h
  TERMINAL_BW: 190.3 g
  APTT: 15.8 s
  Bas: 0%
  Eos: 0.8%
  Fbg: 289.8 mg/dL
  Hb: 14.1 g/dL
  Ht: 41.4%
  Lym: 76.6%
  MCH: 21.7 pg
  MCHC: 33.9%
  MCV: 64 fL
  Mono: 3.2%
  Neu: 19.2%
  PT: 12 s
  Plat: 115.3 x10_4/uL
  RBC: 648.4 x10_4/ul
  Ret: 9.4%
  WBC: 67.3 x10_2/uL
  KIDNEY_L: 0.8 g
  KIDNEY_R: 0.8 g
  KIDNEY_TOTAL: 1.7 g
  LIVER: 7.6 g
  A/G: 0.9
  ALP: 1696 IU/L
  ALT: 48.2 IU/L
  AST: 81.6 IU/L
  BUN: 8 mg/dL
  CRE: 0.1 mg/dL
  Ca: 11 mg/dL
  Cl: 105.2 meq/L
  DBIL: 0.01 mg/dL
  GLC: 191.6 mg/dL
  IP: 10.9 mg/dL
  K: 3.6 meq/L
  LDH: 78.2 IU/L
  Na: 141.6 meq/L
  PL: 152.2 mg/dL
  RALB: 2.7 g/dL
  TBIL: 0.044 mg/dL
  TC: 82.8 mg/dL
  TG: 55.8 mg/dL
  TP: 5.7 g/dL
  gamma-GTP: 1.4 IU/L
6 h
  TERMINAL_BW: 192 g
  APTT: 15.8 s
  Bas: 0%
  Eos: 0.6%
  Fbg: 293 mg/dL
  Hb: 13.9 g/dL
  Ht: 41.8%
  Lym: 73%
  MCH: 21 pg
  MCHC: 33.3%
  MCV: 63 fL
  Mono: 2.2%
  Neu: 23.8%
  PT: 12.3 s
  Plat: 107.3 x10_4/uL
  RBC: 663.8 x10_4/ul
  Ret: 9.1%
  WBC: 56.8 x10_2/uL
  KIDNEY_L: 0.8 g
  KIDNEY_R: 0.8 g
  KIDNEY_TOTAL: 1.6 g
  LIVER: 7.4 g
  A/G: 0.9
  ALP: 1585.6 IU/L
  ALT: 40.6 IU/L
  AST: 72.2 IU/L
  BUN: 9.2 mg/dL
  CRE: 0.1 mg/dL
  Ca: 10.9 mg/dL
  Cl: 103.4 meq/L
  DBIL: 0.008 mg/dL
  GLC: 207.6 mg/dL
  IP: 11.1 mg/dL
  K: 3.8 meq/L
  LDH: 80 IU/L
  Na: 140.6 meq/L
  PL: 156.8 mg/dL
  RALB: 2.7 g/dL
  TBIL: 0.04 mg/dL
  TC: 93.2 mg/dL
  TG: 29.4 mg/dL
  TP: 5.7 g/dL
  gamma-GTP: 1.4 IU/L
9 h
  TERMINAL_BW: 190.5 g
  APTT: 16.2 s
  Bas: 0%
  Eos: 0.6%
  Fbg: 274.4 mg/dL
  Hb: 14.2 g/dL
  Ht: 41.9%
  Lym: 79%
  MCH: 21.5 pg
  MCHC: 33.9%
  MCV: 63.4 fL
  Mono: 2.4%
  Neu: 17.6%
  PT: 12.2 s
  Plat: 111.6 x10_4/uL
  RBC: 660.8 x10_4/ul
  Ret: 8.9%
  WBC: 67.7 x10_2/uL
  KIDNEY_L: 0.8 g
  KIDNEY_R: 0.8 g
  KIDNEY_TOTAL: 1.6 g
  LIVER: 6.5 g
  A/G: 0.9
  ALP: 1518.8 IU/L
  ALT: 40.8 IU/L
  AST: 75.6 IU/L
  BUN: 12 mg/dL
  CRE: 0.2 mg/dL
  Ca: 10.6 mg/dL
  Cl: 103.6 meq/L
  DBIL: 0.008 mg/dL
  GLC: 184.8 mg/dL
  IP: 11 mg/dL
  K: 3.7 meq/L
  LDH: 95.6 IU/L
  Na: 140.6 meq/L
  PL: 141.4 mg/dL
  RALB: 2.6 g/dL
  TBIL: 0.052 mg/dL
  TC: 86.6 mg/dL
  TG: 23.8 mg/dL
  TP: 5.6 g/dL
  gamma-GTP: 1.8 IU/L
24 h
  TERMINAL_BW: 185.8 g
  APTT: 18.7 s
  Bas: 0%
  Eos: 0.4%
  Fbg: 204.8 mg/dL
  Hb: 13.9 g/dL
  Ht: 40.9%
  Lym: 71.6%
  MCH: 21.5 pg
  MCHC: 34%
  MCV: 63.2 fL
  Mono: 1.8%
  Neu: 25.8%
  PT: 15.8 s
  Plat: 111.5 x10_4/uL
  RBC: 647.2 x10_4/ul
  Ret: 7.3%
  WBC: 73.2 x10_2/uL
  KIDNEY_L: 0.8 g
  KIDNEY_R: 0.8 g
  KIDNEY_TOTAL: 1.7 g
  LIVER: 8.6 g
  A/G: 0.9
  ALP: 2477 IU/L
  ALT: 113.6 IU/L
  AST: 481 IU/L
  BUN: 14.6 mg/dL
  CRE: 0.2 mg/dL
  Ca: 10.2 mg/dL
  Cl: 106.8 meq/L
  DBIL: 0.024 mg/dL
  GLC: 166.8 mg/dL
  IP: 8.3 mg/dL
  K: 4.1 meq/L
  LDH: 784.6 IU/L
  Na: 142 meq/L
  PL: 130.8 mg/dL
  RALB: 2.6 g/dL
  TBIL: 0.074 mg/dL
  TC: 85.6 mg/dL
  TG: 67.4 mg/dL
  TP: 5.5 g/dL
  gamma-GTP: 1.4 IU/L
